From patent US20090054403A1, “Treatment of Post-Traumatic Stress Disorder” (priority 2007, published 2009)

Key:
[1] = tested on: sympathetically mediated pressor response; assay: Pressor response to pre-ganglionic nerve stimulation in pithed SHR; assay type: in vivo, spontaneously hypertensive rats (SHR)
Procedure: (§1) Hemodynamic study in SHR. Male SHR (15-16 week old) were used in the study. The animals were lightly anesthetized with ether and the left femoral artery and vein were catheterized for measurement of blood pressure and drug administration, respectively. The animals were placed in restrainers and allowed to recover for 30-40 min. […] The animals were then anesthetized with pentobarbital, placed on a heating pad (37° C.) and ventilated with a Harvard rodent ventilator. After administration of atropine (1 mg/kg, iv) and tubocurarine (1 mg/kg, iv), the animals were pithed through the orbit of the eye with a stainless steel rod. The […] rod was stimulated electrically with 1 ms pulses of 80V at different frequencies (0.15, 0.45, 1.5, 5, 15 Hz) to obtain frequency-pressor response curves.

[2] = tested on: tissue noradrenaline and dopamine content; assay: Tissue catecholamines in beagle dogs dosed b.i.d. for 4.5 days (0.05-5 mg/kg); assay type: in vivo
Procedure: Male beagle dogs (10-16 kg, Marshall Farms USA Inc, North Rose, N.Y., USA) were used in the study. On the day of the study, dogs were weighed and randomly assigned to be orally dosed with either empty capsules (control) or the appropriate dose of nepicastat (0.05, 0.5, 1.5 or 5 mg.kg^−1; po, b.i.d.) […]. At six hours following the first dose on day-5, the dogs were euthanized with pentobarbital and the tissues (cerebral cortex, renal artery, left ventricle) were rapidly harvested. The tissues were subsequently processed and analysed for noradrenaline and dopamine as described above.
Male beagle dogs (10-16 kg, Marshall Farms USA Inc, North Rose, N.Y.) were used in the study. On the day of the study, dogs were randomly assigned to receive either placebo (empty capsule) or the appropriate dose of 2a. Each dog was dosed twice a day for 4.5 days. 6 h after the first dose on day 5, the dogs were euthanized with pentobarbital and the tissues (cerebral cortex. renal artery, left ventricle) harvested, weighed, placed in iced 0.4 M perchloric acid, frozen in liquid nitrogen and stored at −70° C. until analysis. Tissue NE and DA concentrations were assayed by HPLC using electrochemical detection.

[3] = tested on: mean arterial pressure and heart rate; assay: Hemodynamic study in conscious, restrained SHR; assay type: in vivo, spontaneously hypertensive rats (SHR)
Procedure: as §1, with “FIG. 13: Effects of orally administered 2a on mean arterial pressure in conscious, restrained spontaneously hypertensive rats (SHR). SHR were lightly anesthetized with ether and instrumented for measurement of arterial pressure and drug administration. The animals were placed in restrainers and allowed to recover for 30-40 minutes. […] All data are expressed as mean±standard error of mean. n=6-8 per group. […] IR spectra were recorded on a Nicolet SPC FT-IR spectrometer. UV spectra were recorded on a Varian Cary 3 UV-Visible spectrometer, Leeman Labs Inc. Optical rotations were measured in a Perkin-Elmer Model 141 polarimeter. […] Hemodynamic” for “Hemodynamic”

Cl.NCc1c[nH]c(=S)n1[C@H]1CCc2c(F)cc(F)cc2C1 [nepicastat, (S)-5-Aminomethyl-1-(5,7-difluoro-1,2,3,4-tetrahydronaphth-2-yl)-2,3-dihydro-2-thioxo-1H-imidazole hydrochloride]
responses to preganglionic nerve stimulation ([1]; 3 mg/kg p.o., 5 hours after dosing): significantly attenuated the hypertensive and tachycardic responses | maximum shift of the frequency-pressor response curve ([1]; 5 h after oral dosing): 5 fold | maximal increase in DA/NE ratio, artery (renal) ([2]; 5 mg/kg): 95 fold | maximal increase in DA/NE ratio, cerebral cortex ([2]; 5 mg/kg): 80 fold | maximal increase in DA/NE ratio, left ventricle ([2]; 5 mg/kg): 151 fold | decrease in noradrenaline, cerebral cortex ([2]; 5 mg/kg b.i.d. po): 96% | decrease in noradrenaline, left ventricle ([2]; 5 mg/kg b.i.d. po): 91% | decrease in noradrenaline, renal artery ([2]; 5 mg/kg b.i.d. po): 88% | increase in dopamine, cerebral cortex ([2]; 5 mg/kg b.i.d. po): 166% | increase in dopamine, left ventricle ([2]; 5 mg/kg b.i.d. po): 700% | increase in dopamine, renal artery ([2]; 5 mg/kg b.i.d. po): 627% | doses at which catecholamine changes attained statistical significance (p<0.05) ([2]; renal artery, left ventricle, cerebral cortex): > 0.1 mg/kg/day | decrease in heart rate ([3]; 10 mg/kg oral): 9.8% | maximal decrease in mean blood pressure ([3]; 10 mg/kg oral): 53±4 mmHg | reduction in mean blood pressure relative to vehicle control ([3]; 10 mg/kg oral): 33% | decrease in pressure ([3]; 10 mg/kg, 4 hours after dosing): −46 mmHg | decrease in heart rate ([3]; 30 mg/kg oral): 10.5% | duration of antihypertensive effects ([3]; acute oral administration): > 4 h | time to plateau of antihypertensive response ([3]; oral dosing): 3 to 4 h
